In patent publication US20100040568A1, “Steroidal compounds as melanogenesis modifiers and uses thereof” (SkinMedica, Inc., priority 2008, published 2010):
pIC50: −log10 of the molar value.

Tests used:
[1] = system: Tyrosinase gene family proteins; assay: Immunoblot of tyrosinase gene family proteins in melan-a cells; type: cell-based, murine; conditions: various concentrations, 72 hours
Experimental: Melan-a cells were incubated with various concentrations of conessine for 72 hours. Cell lysates were prepared and separated by 7.5% sodium dodecyl sulfate-polyacrylamide gel and transferred to Immobilon-P membranes. Tyrosinase gene family proteins were detected with antibodies against each protein.

[2] = system: Lamp-1 (lysome-associated membrane protein 1); assay: Level of Lamp-1 in melan-a cells; type: cell-based, murine
Experimental: Melan-a cells were incubated with various concentrations of conessine for 72 hours. Cell lysates were prepared and separated by 7.5% sodium dodecyl sulfate-polyacrylamide gel and transferred to Immobilon-P membranes. Tyrosinase gene family proteins were detected with antibodies against each protein. […] The effect of conessine on the level of Lamp-1 in melan-a cells was examined. A common lineage among the melanosomes and lysosomes is well accepted. Lamp-1 (lysome-associated membrane protein 1) is a lysosome marker. […] Thus, conessine treatment likely results in decreased degradation of both Lamp-1 and tyrosinase gene family proteins (FIG. 12d), thus unexpectedly acting as a melanogenesis […].

[3] = system: Microphthalmia transcription factor (MITF); assay: Level of microphthalmia transcription factor in melan-a cells; type: cell-based, murine
Experimental: Melan-a cells were incubated with various concentrations of conessine for 72 hours. Cell lysates were prepared and separated by 7.5% sodium dodecyl sulfate-polyacrylamide gel and transferred to Immobilon-P membranes. Tyrosinase gene family proteins were detected with antibodies against each protein. […] Microphthalmia transcription factor (MITF) is a transcription factor that regulates the expression of tyrosinase gene family. […] Thus, increased levels of tyrosinase gene family proteins with conessine treatment are not due to increased MITF expression in melan-a cells.

melan-a cells [4] = assay: Melanin assay in cultured murine melanocytes (melan-a); type: cell-based; conditions: 72 hours
Experimental: The Spectrum Collection library consisting of 2000 drug compounds or natural products was screened to identify novel pigmentation inhibitors or stimulators in cultured murine melanocytes (melan-a). Compounds were dissolved in dimethylsulfoxide (DMSO) to a final concentration of 10 mM. Screening was performed with cultured melanocytes in 24-well plates followed by melanin assay (see below). A minimum change of 50% in melanin formation was established as significant for a pigmentation inhibitor or stimulator. DMSO was used as a negative control and the widely used depigmenting agent, hydroquinone, was used as a positive control on every plate. […] Melan-a cells were plated at 5×10^4 cells per well in 1 ml of culture media in 24-well plates the day before adding the library compounds. All compounds were added at the indicated final concentrations. Cells were harvested after 72 hours of incubation, and melanin assay was performed. For the primary and secondary screening, cells were harvested and dissolved in 200 μl of 2N NaOH in 20% DMSO at 70° C. A 180-μl aliquot of the resulting solution was measured for absorbance at 490 nm. Cells are harvested in extraction buffer (1% Triton X-100, 50 mM Tris, 2 mM EDTA, 150 mM NaCl, pH 7.5) containing a complete protease inhibitor cocktail (Roche). The lysates were centrifuged at 14,000 rpm for 10 minutes at 4° C. BCA protein assay kit (Pierce) was used to measure the protein concentrations of the supernatants, and bovine serum albumin was used as a standard. […] A 180-μl aliquot of the resulting solution was measured for absorbance at 490 nm. The melanin contents were normalized to the total amount of protein. The IC50 value for inhibition of cellular melanin synthesis for conessine was determined by culturing melan-a cells with various concentrations of conessine for 72 hours. Briefly, melan-a cells were plated at 5×10^4 cells per well in 1 ml of culture media in 24-well plates the day before adding conessine. Conessine was added at the indicated final concentrations. DMSO was used as a negative control. Cells were harvested after 72 hours of incubation, and spectrophotometric melanin assay was performed on cell pellets. The melanin contents were normalized to the total amount of protein. Cell viability was determined by using the CellTiter 96 aqueous nonradioactive cell proliferation assay. […] Licorice extract was tested under similar conditions as conessine for its ability to decrease melanin synthesis in melan-a cells (FIG. 11c). Melan-a cells were plated at 5×10^4 cells per well in 1 ml of culture media in 24-well plates the day before adding Licorice extract. 70% ethanol was used as control and the Licorice extract was diluted in cell culture media at the indicated concentrations. […] Cells were harvested after 72 hours of incubation, and spectrophotometric melanin assay was performed on cell pellets. The melanin contents were normalized to the total amount of protein. Cell viability was determined by using the CellTiter 96 aqueous nonradioactive cell proliferation assay.

melan-a cells [5] = assay: CellTiter 96 aqueous nonradioactive cell proliferation assay (cell viability); type: cell-based, murine; conditions: concentrations below 20 μM
Experimental: The IC50 value for inhibition of cellular melanin synthesis for conessine was determined by culturing melan-a cells with various concentrations of conessine for 72 hours. Briefly, melan-a cells were plated at 5×10^4 cells per well in 1 ml of culture media in 24-well plates the day before adding conessine. Conessine was added at the indicated final concentrations. DMSO was used as a negative control. Cells were harvested after 72 hours of incubation, and spectrophotometric melanin assay was performed on cell pellets. The melanin contents were normalized to the total amount of protein. Cell viability was determined by using the CellTiter 96 aqueous nonradioactive cell proliferation assay.

In the case of `CC1C2CCC3C4CC=C5CC(N(C)C)CCC5(C)C4CCC32CN1C` (centres unmarked) [Compound 1, Conessine], the “cellular levels of tyrosinase family proteins” value [1] was “increases cellular levels of tyrosinase family proteins in a dose-dependent manner”, the “cellular level of Lamp-1” value [2] was “increases cellular level of Lamp-1” and the “level of MITF” value [3] was “no notable effect”. For the same molecule, the “effect on melanin synthesis in melan-a cells” value (melan-a cells [4]; indicated concentrations) was “significantly inhibited melanogenesis in a dose-dependent manner”, the pIC50 (melan-a cells [4]; Mus musculus, melan-a cells, melanin normalized to protein, read-out: IC50 value for inhibition of cellular melanin synthesis) was ~5.60 and the “% of control remaining @ 1 μM” value (melan-a cells [4]; melanin, melan-a cells, 1 μM) was 73.3 % of control. For the same molecule, the “% of control remaining @ 5 μM” value (melan-a cells [4]; melanin, melan-a cells, 5 μM) was 32.2 % of control and the cytotoxicity (melan-a cells [5]) was “did not exhibit cytotoxicity”.
